This note sets out measurements from patent publication US20240246940A1, “HETEROARYL DERIVATIVE COMPOUND AND USE THEREOF” (VORONOI INC., priority 2021, published 2024).

A value given as a limit tells only on which side of the number the result lay.

Common to all, as to format: cell-based
What all share (conditions): Homo sapiens

For assay [1], the system named is BT-474 cells (HER2 overexpressing cell line). Briefly: BT-474 cell proliferation inhibitory activity (CellTiter-Glo, 120 hours). The method, then:
To evaluate the cell proliferation inhibitory activity of the compound according to the present invention on HER2 and EGFR kinases, the following method was performed using HER2 overexpressing cell lines (SK-BR-3, BT-474, and N-87) and EGFR expressing cell line (HaCaT).
McCOY'S 5A supplemented with 10% FBS was used for SK-BR-3 cells, RPMI-1640 medium supplemented with 20% FBS was used for BT-474 cancer cells, and RPMI-1640 medium supplemented with 10% FBS was used for N-87 cancer cells. DMEM supplemented with 10% FBS was used for HaCaT cells.
For SK-BR-3 cells, 5000 cells were aliquoted into each well of a white clear bottom 96 well plate (Corning) 48 hours before treatment with the compounds of Examples. For BT-474 cells, 5000 cells were aliquoted into each well of a white clear bottom 96 well plate (Corning) 48 hours before treatment with the compounds of Examples. For N-87 cells, 5000 cells were aliquoted into each well of a white clear bottom 96 well plate (Corning) 24 hours before treatment with the compounds of Examples. For HaCaT cells, 3000 cells were aliquoted into each well of a white clear bottom 96 well plate (Corning) 24 hours before treatment with the compounds of Examples. For SK-BR-3 cells and BT-474 cells, the compounds of Examples were diluted in dimethyl sulfoxide (three-fold dilution, a total of 11 concentrations) and injected each in an amount of 1 μl to a final concentration of 0.2 nM to 10 μM. For N-87 cells, the compounds of Examples were diluted in dimethyl sulfoxide (five-fold dilution, a total of 11 concentrations) and injected each in an amount of 0.5 μl to a final concentration of […] to 5 μM. For HaCaT cells, the compounds of Examples were diluted in dimethyl sulfoxide (three-fold dilution, a total of 11 concentrations) and injected each in an amount of 0.5 μl to a final concentration of 0.8 nM to 45 μM. For the measurement of living cells, the cells were stored at room temperature for 10 minutes using CellTiter-Glo cell viability reagent (Promega) after a certain period of time (SK-BR-3: 120 hours, BT-474: 120 hours, N-87: 72 hours, and HaCaT: 72 hours) post treatment with the compounds of Examples, and the luminescence intensity thereof was measured using a reader (SynergyNeo, Biotek). Each test was repeated three times.
The result values were calculated as a cell growth rate (%) compared to those of the control group. A graph was created using the GraphPad Prism version 5.0 program, and GI50 values were calculated.

Assay [2] has as its system HaCaT cells (EGFR expressing cell line). The assay is described as follows: HaCaT cell proliferation inhibitory activity (CellTiter-Glo, 72 hours). The essentials:
(§1)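 GI50 values derive from luminescence-based live-cell counts, expressed relative to control growth. Final compound ranges were 0.2 nM–10 μM for the two breast lines, […]–5 μM in N-87 and 0.8 nM–45 μM in HaCaT. Tests were run three times.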

The test system of assay [3] is SK-BR-3 cells (HER2 overexpressing cell line). The assay is described as follows: SK-BR-3 cell proliferation inhibitory activity (CellTiter-Glo, 120 hours). The essentials: as §1

Take `C=CC(=O)N1CC[C@@H](Oc2cc3c(Nc4cc(-c5ccco5)ccc4OC)ncnc3cc2OC)[C@@H](F)C1` [Example 178, 1-((3S,4R)-3-fluoro-4-((4-((5-(furan-2-yl)-2-methoxyphenyl)amino)-7-methoxy-quinazolin-6-yl)oxy)piperidin-1-yl)prop-2-en-1-one]: the GI50 in assay [1] and in assay [2] was ≤ 150 nM throughout.
For the compound `C=CC(=O)N1CCC2(CC1)CN(c1cc3c(Nc4cc(-c5ccc(F)cc5F)ccc4OC)ncnc3cc1OC)C2` [Example 325, 1-(2-(4-((2′,4′-difluoro-4-methoxy-[1,1′-biphenyl]-3-yl)amino)-7-methoxyquinazolin-6-yl)-2,7-diazaspiro[3.5]nonan-7-yl)prop-2-en-1-one], the GI50 in assay [1] and in assay [2] was 150 to 1000 nM throughout.
In the case of `C=CC(=O)N1CCC(Oc2cc3c(Nc4cc(-c5ccc(F)c(C(F)(F)F)c5F)ccc4OC)ncnc3cc2OC)CC1` [Example 202, 1-(4-((4-((2′,4′-difluoro-4-methoxy-3-(trifluoro-methyl)′-[1,1′-biphenyl]-3-yl)amino)-7-methoxy-quinazolin-6-yl)oxy)piperidin-1-yl)prop-2-en-1-one], the figures for the GI50 in assay [1] and in assay [2] were ≤ 150 nM and > 1000 nM, respectively.
On the same counts, the results for `C=CC(=O)N1CCC(Nc2cc3c(Nc4cc(-c5cccc(C=O)c5)ccc4OC)ncnc3cc2OC)CC1` [Example 209, 3′-((6-((1-acryloyl-piperidin-4-yl)amino)-7-methoxy-quinazolin-4-yl)amino)-4′-methoxy-[1,1′-biphenyl]-3-carbaldehyde] are ≤ 150 nM and 150 to 1000 nM.
On the same counts, the results for `C=CC(=O)N1CCC(Oc2cc3c(Nc4cc(-c5ccc6c(c5)OCO6)ccc4OC)ncnc3cc2OC)CC1` [Example 153, 1-(4-((4-((5-(benzo[d][1,3]dioxol-5-yl)-2-methoxyphenyl)amino)-7-methoxy-quinazolin-6-yl)oxy)piperidin-1-yl)prop-2-en-1-one] are 150 to 1000 nM and > 1000 nM.
In the same order, the values of `COc1cc2ncnc(Nc3cc(-c4ccco4)ccc3OC)c2cc1NC(=O)/C=C/CN1C2COCC1C2` [Example 318, (E)-4-(3-oxa-6-azabicyclo[3.1.1]heptan-6-yl)-N-(4-((5-(furan-2-yl)-2-methoxyphenyl)amino)-7-methoxyquinazolin-6-yl)but-2-enamide] are ≤ 150 nM and ≤ 150 nM.
In the case of `C=CC(=O)N1CCC(Oc2cc3c(Nc4cc(-c5cccc([N+](=O)[O-])c5)ccc4OC)ncnc3cc2OC)CC1` [Example 197, 1-(4-((7-methoxy-4-((4-methoxy-3′-nitro-[1,1′-biphenyl]-3-yl)amino)quinazolin-6-yl)oxy)piperidin-1-yl)prop-2-en-1-one], the GI50 in assay [1] is 150 to 1000 nM; in assay [2], > 1000 nM.
On the same counts, the results for `COc1ccc(-c2ccc(F)cc2F)cc1Nc1ncnc2cc(OC)c(OC3CCN(C(=O)C(F)Cl)CC3)cc12` (centres unmarked) [Example 187, 2-chloro-1-(4-((4-((2′,4′-difluoro-4-methoxy-[1,1′-biphenyl]-3-yl)amino)-7-methoxy-quinazolin-6-yl)oxy)piperidin-1-yl)-2-fluoroethan-1-one] are 150 to 1000 nM and ≤ 150 nM.
With `COc1cc2ncnc(Nc3cc(-c4ccco4)ccc3OC)c2cc1NC(=O)/C=C/CN1CCN(C)CC1` [Example 314, (E)-N-(4-((5-(furan-2-yl)-2-methoxyphenyl)amino)-7-methoxyquinazolin-6-yl)-4-(4-methylpiperazin-1-yl)but-2-enamide], the GI50 in assay [1] and in assay [2] was ≤ 150 nM each time.
Regarding `C=CC(=O)N1C2CCC1CC(Oc1cc3c(Nc4cc(-c5ccco5)ccc4OC)ncnc3cc1OC)C2` (centres unmarked) [Example 166, 1-(3-((4-((5-(furan-2-yl)-2-methoxyphenyl)amino)-7-methoxy-quinazolin-6-yl)oxy)-8-azabicyclo [3.2.1]octan-8-yl)prop-2-en-1-one], the GI50 in assay [3] and in assay [2] was ≤ 150 nM throughout.
Turning to `C=CC(=O)N1CC(Oc2cc3c(Nc4cc(-c5cnc(Cl)c(F)c5)ccc4OC)ncnc3cc2OC)C1` [Example 27, 1-(3-((4-((5-(6-chloro-5-fluoropyridin-3-yl)-2-methoxyphenyl)amino)-7-methoxy-quinazolin-6-yl)oxy)azetidin-1-yl)prop-2-en-1-one], the GI50 in assay [3] and in assay [2] was 150 to 1000 nM throughout.
On to `C=CC(=O)N1CCC(Oc2cc3c(Nc4cc(-c5ccco5)ncc4OC)ncnc3cc2OC)CC1` [Example 105, 1-(4-((4-((2-(furan-2-yl)-5-methoxypyridin-4-yl)amino)-7-methoxy-quinazolin-6-yl)oxy)piperidin-1-yl)prop-2-en-1-one], for which the GI50 in assay [3] and in assay [2] was ≤ 150 nM throughout.
`C=CC(=O)N1CCC(Oc2cc3c(Nc4cc(-c5ccco5)ccc4OC4CC4)ncnc3cc2OC)CC1` [Example 253, 1-(4-((4-((2-cyclopropoxy-5-(furan-2-yl)phenyl)amino)-7-methoxyquinazolin-6-yl)oxy)piperidin-1-yl)prop-2-en-1-one]: the GI50 in assay [3] and in assay [2] was ≤ 150 nM throughout.
Turning to `C=CC(=O)N1CCC(Oc2cc3c(Nc4cc(-c5ccncc5)ccc4OC)ncnc3cc2OC)CC1` [Example 149, 1-(4-((7-methoxy-4-((2-methoxy-5-(pyridin-4-yl)phenyl)amino)quinazolin-6-yl)oxy)piperidin-1-yl)prop-2-en-1-one], the GI50 in assay [3] and in assay [2] was 150 to 1000 nM in each case.
With `C=CC(=O)N1CCC(Oc2cc3c(Nc4cc(-c5ccco5)ccc4OC)ncnc3cc2OCC)CC1` [Example 238, 1-(4-((7-ethoxy-4-((5-(furan-2-yl)-2-methoxyphenyl)amino)quinazolin-6-yl)oxy)piperidin-1-yl)prop-2-en-1-one], the GI50 in assay [3] and in assay [2] was ≤ 150 nM in each case.
Turning to `C=CC(=O)N1CC(Oc2cc3c(Nc4cc(-c5cccc(NC(=O)C6CC6)c5)ccc4OC)ncnc3cc2OC)C1` [Example 227, N-(3′-((6-((1-acryloylazetidin-3-yl)oxy)-7-methoxy-quinazolin-4-yl)amino)-4′-methoxy-[1,1′-biphenyl]-3-yl)cyclopropan-carboxamide], the GI50 was 150 to 1000 nM in assay [3] and > 1000 nM in assay [2].
In the case of `C=CC(=O)N1CC(Oc2cc3c(Nc4cc(-c5ccc(Cl)cc5F)ccc4OC)ncnc3cc2OC)C1` [Example 15, 1-(3-((4-((4′-chloro-2′-fluoro-4-methoxy-[1,1′-biphenyl]-3-yl)amino)-7-methoxy-quinazolin-6-yl)oxy)azetidin-1-yl)prop-2-en-1-one], the GI50 in assay [3] and in assay [2] was ≤ 150 nM each time.
For the compound `C=CC(=O)N1CC(Oc2cc3c(Nc4cc(-c5ccn6ncnc6c5)ccc4OC4CCN(C)C4)ncnc3cc2OC)C1` (centres unmarked) [Example 242], the results for the GI50 in assay [3] and in assay [2] were 150 to 1000 nM and ≤ 150 nM, respectively.
With `C=CC(=O)N1CC(Oc2cc3c(Nc4cc(-c5cccc(C(F)(F)F)c5)ccc4OC)ncnc3cc2OC)C1` [Example 9, 1-(3-((7-methoxy-4-((4-methoxy-3′-(trifluoromethyl)-[1,1′-biphenyl]-3-yl)amino)quinazolin-6-yl)oxy)azetidin-1-yl)prop-2-en-1-one], the GI50 in assay [3] and in assay [2] was 150 to 1000 nM in each case.
